{"source": "paper PMC3904487", "about": "“The effect of piperine on midazolam plasma concentration in healthy volunteers, a research on the CYP3A-involving metabolism” (DARU Journal of Pharmaceutical Sciences, 2014)", "key": {"[1]": {"experiment": "Clinical features (sedation, amnesia, side effects) after oral midazolam in placebo and piperine pretreatment groups", "format": "in vivo, human", "conditions": "midazolam 10 mg oral; for End of drug effect / duration of sedation / Onset of drug effect (sedative effect of midazolam): n=20, mean (±SD)"}, "[2]": {"experiment": "Midazolam plasma concentration (HPLC) and one-compartment PK after placebo or piperine pretreatment in healthy volunteers", "excerpt": "This was a cross-over controlled study on two groups (n=10) of healthy volunteers. A one-month period was considered as wash out time between two trials. […] Inclusion criteria: being healthy; age ranging 18 to 35; normal diet; not receiving microsomal enzyme inhibitor or inducer agents for at least 7 days before the study; not using black pepper for at least 7 days before the study. Exclusion criteria: age being below 18 and above 35; smocking; pregnancy; metabolic disorders; high pepper diet, receiving enzyme inhibitors or inducers.\nHealthy volunteers regardless of gender were randomly divided into two control and piperine receiving groups (n=20 per group). The subject received placebo or piperine (1 capsule 15 mg of piperine daily for 3 days before midazolam) and midazolam (10 mg as an oral single dose) on fourth day of the study. […] Blood samples (maximum 10 ml) were taken at 0.5, 2.5 and 5 hour after midazolam administration. After a month as a wash out period, the treatment program was exchanged between placebo and piperine groups and all steps were done as same as the previous.\nBlood samples were transferred into labeled tubes containing Ca-EDTA and shake gently to mix Ca-EDTA with blood for preventing of coagulation.The samples were centrifuged at 3500 ×g for 15 min and supernatant plasma layer transferred into a blank tube. Until the assay of midazolam or diazepam concentration, the plasma samples were kept at −20°C.\nFor measurement of the drugs concentration, plasma samples were removed from the freezer condition and left in the laboratory to convert from frozen into a liquid sample. Then 0.5 ml of thawed plasma sample was transferred into a capped falcon tube. In the next step, 100 micl of 1 M NaOH and 100 micl isoamyl alcohol were added. After a gently shaking, 4.5 ml of n-hexan was added and shake for 1 minute. The final solutions were centrifuged at 300 ×g for 5 min. After this step, 4.2 ml of supernatant was drawn and transferred into a plastic tube and 100 miclof 0.05 M HCl was added to the solution and centrifuged similar as the previous. Then the supernatant (organic layer) was discarded and the remaining was directly injected into the HPLC.\nThe separation was carried out at ambient temperature using a single-column isocratic reverse-phase method. The mobile phase consisted of 75% methanol and 25% water. Flow rate was set at 0.8 ml/min. The extracts were detected by UV detector at 242 nm wavelength. Twenty micl of the aqueous layer of final extract was injected into the HPLC using a Hamilton’s syringe. The injection was repeated 3 times for each sample. Peaks area and height were considered for midazolam and diazepam detection and used for calculation of the drugs concentration in the final plasma extract.\nThe second; pharmacokinetic (PK) parameters such as absorption rate constant (Ka), clearance, half-life and volume of distribution of midazolam in the placebo and piperine groups were calculated based on assumed one-compartment kinetics using P-Pharm software.\nBased on non-parametric distribution, data of three concentrations by time were analyzed using Friedman test. Wilcoxon U-test was used for the results of clearance, volume of distribution and half-life of midazolam in piperine group compared to placebo. The difference of the PK parameters between two groups was considered statistically significant at p<0.05."}, "[3]": {"conditions": "piperine 15 mg x 3 days pretreatment"}, "[4]": {"conditions": "piperine 15 mg x 3 days pretreatment, of n=20"}, "[5]": {"conditions": "placebo pretreatment, midazolam 10 mg oral, n=20"}}, "note": "“And” between values parts separate entries of the source, which are not always exact repeats. Equal values may be shown once."}
{"smiles": "O=C(/C=C/C=C/c1ccc2c(c1)OCO2)N1CCCCC1", "note": "[Piperine, piperine]", "values": [{"measurement": "Subjects with severe sedation and dizziness", "setting": "[1]; [3]", "value": 55, "unit": "%"}, {"measurement": "End of drug effect / duration of sedation", "setting": "[1]; [3]", "value": "188 (±59) min"}, {"measurement": "Onset of drug effect (sedative effect of midazolam)", "setting": "[1]; [3]", "value": "11.75 (±4.9) min"}, {"measurement": "End of drug effect / duration of sedation", "setting": "[1]; piperine 15 mg x 3 days pretreatment, listed as piperine", "value": "188 ± 59", "unit": "min"}, {"measurement": "Amnesia (frequency, subjects)", "setting": "[1]; [4]", "value": 7}, {"measurement": "Sedation (frequency, subjects)", "setting": "[1]; [4]", "value": 20}, {"measurement": "Amnesia (frequency, subjects)", "setting": "[1]; piperine 15 mg x 3 days pretreatment, of n=20, listed as piperine", "value": "Seven"}, {"measurement": "Subjects with hiccup when receiving midazolam", "setting": "[1]; piperine 15 mg x 3 days pretreatment, disappeared during first hours", "value": "One"}]}
{"smiles": "Cc1ncc2n1-c1ccc(Cl)cc1C(c1ccccc1F)=NC2", "note": "[midazolam]", "values": [{"measurement": "Subjects with severe sedation and dizziness", "setting": "[1]; placebo pretreatment", "value": 30, "unit": "%"}, {"measurement": "End of drug effect / duration of sedation", "setting": "[1]; placebo pretreatment", "value": "102±43 min and 102 (±43) min"}, {"measurement": "Onset of drug effect (sedative effect of midazolam)", "setting": "[1]; placebo pretreatment", "value": "11.25 (±4.5) min"}, {"measurement": "Amnesia (frequency, subjects)", "setting": "[1]; placebo pretreatment, of n=20", "value": 4}, {"measurement": "AUC(0-t)", "setting": "[2]; both, human, plasma, po, 10 mg", "value": "0.411 ± 0.235", "unit": "µg·h/mL"}, {"measurement": "half-life", "setting": "[2]; both, human, plasma, po, 10 mg", "value": 1.71, "unit": "h"}, {"measurement": "Time of maximum plasma midazolam concentration", "setting": "[2]; placebo group, after midazolam 10 mg oral, population concentration-time curve", "value": 1.5, "unit": "h"}, {"measurement": "Kel, elimination rate constant of midazolam (Max)", "setting": "[2]; [5]", "value": 0.42}, {"measurement": "Kel, elimination rate constant of midazolam (Min)", "setting": "[2]; [5]", "value": 0.390}, {"measurement": "Kel, elimination rate constant of midazolam (mean)", "setting": "[2]; [5]", "value": 0.41}, {"measurement": "T1/2, half-life of midazolam (Max)", "setting": "[2]; [5]", "value": 1.78, "unit": "h"}, {"measurement": "T1/2, half-life of midazolam (Min)", "setting": "[2]; [5]", "value": 97.8, "unit": "min"}, {"measurement": "Volume (of distribution) of midazolam (Max)", "setting": "[2]; [5]", "value": 93.03}, {"measurement": "Volume (of distribution) of midazolam (Min)", "setting": "[2]; [5]", "value": 87.63}, {"measurement": "Volume (of distribution) of midazolam (mean)", "setting": "[2]; [5]", "value": 91.44}]}
